# Source: patent US8623649B2, “Method of selecting a cardiomyoctye using intracellular mitochondria as an indicator” (Daiichi Sankyo Company, Limited, priority 2004, dated 2014)
# “Also recorded” adds a separate entry of the source.
# Columns and labels:
# Assay type in all cases: cell-based
# [1] = tested on: cell mixture derived from a whole heart extracted from neonatal rat heart; test: Labeling of neonatal rat whole-heart cell mixture with mitochondrial indicator, FACS sorting, anti-Sarcomeric α-Actinin immunostaining; conditions: for percentage of cardiomyocyte in cells with relatively higher fluorescent intensity (P5 area): cultured 24 hours
# Description: (§1) Neonatal rats 1-3 days after birth were sacrificed by cervical dislocation after ether anesthesia, after which the heart of each rats was isolated. Cardiac ventricle isolated from the heart was treated with 0.025% (w/v) of collagenase (available from Warthington Biomedical Corporation) in serum free D-MEM (High-glucose) medium (available from Invitrogen). By digesting the cardiac ventricle using collagenase, cells were dispersed in the medium to prepare a cell mixture derived from a whole heart.
# (§2) Subsequently, the culture medium was replaced by D-MEM (High-glucose) medium (available from Invitrogen) supplemented with 10% (final concentration) of fetal bovine serum (available from JRH Bioscience). Thus prepared cultured cells were incubated in the culture medium containing 100 nM (final concentration) of a mitochondrial indicator, M7512 (available from Molecular Probe) for 10 minutes at 37° C. After incubation, the cells were washed 4 times using the culture medium and further cultured for 24 hours at 37° C.
# The cell mixture derived from a whole heart was prepared in accordance with the method described in Example 1 and labeled with M7512. The labeled cell mixture derived from a whole heart was subjected to analysis of distribution of the cells of the cell mixture derived from a whole heart using FACS (registered trademark) (BD, Franklin Lakes, N.J. USA).
# In this example, cells of P5 area were sorted as a cardiomyocyte and cells of P6 area were sorted as a non-cardiomyocyte, each then being separately subjected to the cell culture.
# (§3) Next, the fixed cells were labeled with a cardiomyocyte marker, mouse anti-Sarcomeric α-Actinin Antibody (available from SIGMA), which were visualized using green fluorescent material-conjugated goat anti-mouse antibody (available from Molecular Probes).
# In this example, the cell mixture derived from a whole heart extracted from a neonatal rat heart, which was labeled with a mitochondrial indicator, was prepared by the same method as that described in Example 1, except that T3168 (available from Molecular Probe) was used as a mitochondrial indicator.
# Thus selected cells were cultured followed by paraformaldehyde fixation by the same method as that described in Example 5, which were labeled with mouse anti-Sarcomeric α-Actinin Antibody (available from SIGMA).
# Neonatal rat heart was treated with 0.025% (w/v) of collagenase (available from SIGMA) and trypsin (available from GIBCO) to collect a cell population. Cells dispersed in the culture medium were exposed to 1 μM (final concentration) of a mitochondrial indicator, T668 (available form Molecular Probe) for 15 minutes at 37° C., washed 3 times, and immediately analyzed by FACS.
# Neonatal rat heart was treated with collagenase and trypsin to collect a cell population. Cells dispersed in the culture medium were exposed to 1 μM (final concentration) of a mitochondrial indicator S7563 for 15 minutes at 37° C., washed 3 times, and immediately analyzed by FACS.
# [2] = tested on: cell mixture derived from a mouse embryonic stem cell; test: Labeling of mouse embryonic stem cell derived cell mixture with mitochondrial indicator, FACS sorting, Actinin immunostaining
# From the text: as §3
# [3] = tested on: cell mixture derived from a whole heart extracted from neonatal rat heart; test: Fluorescent microscope observation of labeled neonatal rat whole-heart cell mixture; conditions: 100 nM, 10 minutes at 37° C., cultured 24 hours
# Description: as §1, §2
# [4] = tested on: cell mixture derived from a mouse embryonic stem cell; test: Fluorescent microscope observation of labeled mouse embryonic stem cell derived cell mass; conditions: labeled as Example 1, adhesion culture 5 days after removal of M7512
# Description: Fourteen days after differentiation and induction, a cell mass containing an autonomously pulsating cardiomyocyte was confirmed to be formed in the culture vessel, to which 10^−8 M of all trans-retinoic acid was added for further enhancing the degree of differentiation/induction of the cardiomyocyte.
# At 21st day from differentiation/induction, a cell mass containing an autonomously pulsating cardiomyocyte was dispersed into separate cells to form a cell mixture. Thus prepared cell mixture was labeled with M7512 under the same condition as that of Example 1 and cultured under the condition of the adhesion culture for further 5 days after removal of M7512. After further culture for 5 days, a cell mass containing an autonomously pulsating cardiomyocyte prepared under the culture condition was observed using a fluorescent microscope.
# [5] = tested on: fetal rat cells derived from a whole heart; test: Staining of fetal rat whole-heart cells (13th day post conception), FACS sorting, anti-Actinin immunostaining; conditions: fetal rat heart of 13th day post conception; 1 μM, 15 minutes at 37° C.
# Description: Fetal rat heart of 13th day post conception was treated with collagenase and trypsin to collect a cell population. Cells dispersed in the culture medium were exposed to 1 μM (final concentration) of a mitochondrial indicator T668 for 15 minutes at 37° C., washed 3 times, and immediately subjected to FACS analysis. The cells were separated into 3 groups of cell population based on T668 fluorescent intensity (FIG. 9-1).
# Then, the cardiomyocyte was identified by immunostaining of the cultured cell using anti-Actinin antibody.
# whole fetal cells = test: Staining of whole fetal cells (fetal rat of 9th day post conception), FACS sorting, Actinin immunostaining; conditions: 1 μM, 15 minutes at 37° C.
# Description: Fetal rat of 9th day post conception was treated with collagenase and trypsin to collect cell population. Cells dispersed in the culture medium were exposed to 1 μM (final concentration) of a mitochondrial indicator T668 for 15 minutes at 37° C., washed 3 times, and immediately subjected to FACS analysis. One single cell population was mainly observed as a cell population based on the fluorescent intensity. On the other hand, in the high fluorescent intensity area in which the cardiomyocyte was predicted to be detected based on the analysis of a whole heart sample from the later development stage, a definite cell population could not be found (FIG. 10-1).
# The cells were cultured and immunostained with an antibody against a cardiomyocyte marker, Actinin. […] Since the cardiomyocyte is extremely immature in the fetus of 9th day post conception (early embryo), it is considered in the art that quantitative alteration of the mitochondria has not completely occurred.
# [6] = tested on: neonatal rat cells derived from a whole heart; test: Double staining with T668 and M7514, comparative FACS analysis of transmembrane potential per mitochondria
# Description: Cell population was collected using the same materials and the same method as those described in Example 8. Thus collected cardiomyocytes were stained with a mitochondrial indicator, M7514 (available from Molecular Probe), independent of the transmembrane potential which can specifically stain mitochondria and with a mitochondrial indicator T668 dependent on the transmembrane potential which can also specifically stain mitochondria. The cells were analyzed using FACS immediately after the staining. It is possible to separately detect the fluorescence of T668 and that of M7514 since the wavelength of the fluorescence from T668 is different from that from M7514. In this example, three groups of cell population were detected based on T668 fluorescence as an indicator.
# Next, each cell population is separated based on the ratio of fluorescent intensity derived from T668 divided by fluorescent intensity derived from M7514. […]
# [7] = tested on: rat cells derived from a whole heart; test: Staining of rat whole-heart cells from 11th day post conception to 8 days after birth and FACS analysis; conditions: 11th day post conception to 8 days after birth; 1 μM, 15 minutes at 37° C.
# Description: Rat heart obtained at 11th day post conception to 8 days after birth was treated with collagenase and trypsin to collect a cell population. Cells dispersed in the culture medium were exposed to 1 μM (final concentration) of a mitochondrial indicator T668 for 15 minutes at 37° C., washed 3 times, and immediately analyzed by FACS. In consequence, the cell population was isolated by T668 fluorescent intensity. […] Therefore, it is shown that it is possible to presume the maturity of the cardiomyocyte by the method provided by the present specification.
# [8] = 100 nM indicator, 10 minutes at 37° C., FACS sorted, anti-Sarcomeric α-Actinin, 30% before selection
# [9] = 1 μM indicator, 15 minutes at 37° C., immediate FACS, anti-Actinin immunostaining
# [10] = 1 μM, 15 minutes at 37° C., immediate FACS, Actinin immunostaining
smiles,measurement,setting,value
"ClCc1ccc(C2=c3cc4c5c(c3Oc3c2cc2c6c3CCCN6CCC2)CCC[N+]=5CCC4)cc1.[Cl-] [M7512, 1H,5H,11H,15H-Xantheno[2,3,4-ij:5,6,7-i′j′]diquinolizin-18-ium, 9-[4-(chloromethyl)phenyl]-2,3,6,7,12,13,16,17-octahydro-, chloride]",percentage of cardiomyocyte in cells with relatively higher fluorescent intensity (P5 area),[1]; [8],more than 99%
same,percentage of cardiomyocyte in cells with relatively lower fluorescent intensity (P6 area),[1]; [8],approximately equal to the percentage of the cardiomyocyte before the selection
same,percentage of cardiomyocyte in cells collected from P2 area (relatively higher fluorescent intensity),"[2]; M7512 labeling as Example 1, 5 days culture after removal, 10% before selection",more than 80%
same,indicator-based fluorescence under fluorescent microscope,[3],clearly observed in a cardiomyocyte
same,labeling of autonomously pulsating cardiomyocytes compared with other types of cells,[4],strongly labeled
COC(=O)c1ccccc1-c1c2ccc(=N)cc-2oc2cc(N)ccc12.Cl [R302],composition of cell population with the highest fluorescent intensity,[1]; [9],cells of interest can also be obtained
"COC(=O)c1ccccc1-c1c2ccc(N(C)C)cc2[o+]c2cc(N(C)C)ccc12 [T668, Xanthylium, 3,6-bis(dimethylamino)-9-(2-(methoxycarbonyl)phenyl)-, perchlorate]",composition of cell population with the highest fluorescent intensity,[1]; [9],almost all cells of the cell population with the highest intensity of T668 fluorescent signal consist of a cardiomyocyte
same,composition of cell population with the middle fluorescent intensity,[1]; [9],almost all cells of the cell population with the middle fluorescent intensity consist of a non-cardiomyocyte
same,composition of main cell population,[2]; [10],Almost all of the cells collected consist of a non-cardiomyocyte
same,percentage of cardiomyocyte in high fluorescent cell population,[2]; [10],More than 98%
same,composition of cell population with the highest fluorescent intensity,[5],almost all cells of the cell population with the highest intensity of T668 consist of a cardiomyocyte; also recorded: almost all cells of the cell population with the highest intensity of T668 fluorescent signal consist of the cardiomyocyte
same,composition of cell population with the middle fluorescent intensity,[5],almost all cells of the cell population with the middle fluorescent population consist of a non-cardiomyocyte; also recorded: almost all cells of the cell population with the middle fluorescent intensity consist of the non-cardiomyocyte
same,percentage of cardiomyocyte in high fluorescent cell population,whole fetal cells,more than 95%
same,"cells with ratio of T668 fluorescent intensity to M7514 fluorescent intensity of more than 150%, share of total cells",[6]; cell population identified as a cardiomyocyte based on T668 signal,90%
same,"cells with ratio of T668 fluorescent intensity to M7514 fluorescent intensity of more than 150%, share of total cells",[6]; cell population identified as a non-cardiomyocyte based on T668 signal,13%
same,high fluorescent cardiomyocyte population as the development stage progressed,[7],increased in number
"CCN1C(=CC=Cc2n(CC)c3cc(Cl)c(Cl)cc3[n+]2CC)N(CC)c2cc(Cl)c(Cl)cc21 [T3168, 1H-Benzimidazolium, 5,6-dichloro-2-[3-(5,6-di-chloro-1,3-diethyl-1,3-dihydro-2H-benzimidazol-2-ylidene)-1-propenyl]-1,3-diethyl-, iodide, (E)-]",percentage of cardiomyocyte in cells with relatively higher fluorescent intensity (P5 area),[1]; [8],more than 95%
